Values quoted from earlier work, collected in patent publication US20200319065A1, “STABLE DITHIZONE SOLUTIONS AND FORMULATIONS AND METHODS FOR THEIR USE” (CITY OF HOPE, priority 2019, published 2020).

S=C(N=Nc1ccccc1)NNc1ccccc1 [DTZ, Dithizone]
solubility in organic solvents (ethanol, chloroform and DMSO): solubilizes partially
solubility in water (water): relatively insoluble
